From publication PMC3731359 (PLoS ONE, 2013)
Ends that are not written are not given here. * marks the point of attachment. Biotin = O=C1N[C@H]2[C@H](CS[C@H]2CCCCC(=O)*)N1

What was measured:
NAE [1] = biological target: T1, NAE (Homo sapiens, UniProt Q13564+Q8TBC4); details: Arg72Ala mutant of UB by site directed mutagenesis; cited from earlier work
T1 construct: made in house; host or cells: E. coli BL21(DE3)pLysS
T1 sequence (Q8TBC4 22-463 limits assumed): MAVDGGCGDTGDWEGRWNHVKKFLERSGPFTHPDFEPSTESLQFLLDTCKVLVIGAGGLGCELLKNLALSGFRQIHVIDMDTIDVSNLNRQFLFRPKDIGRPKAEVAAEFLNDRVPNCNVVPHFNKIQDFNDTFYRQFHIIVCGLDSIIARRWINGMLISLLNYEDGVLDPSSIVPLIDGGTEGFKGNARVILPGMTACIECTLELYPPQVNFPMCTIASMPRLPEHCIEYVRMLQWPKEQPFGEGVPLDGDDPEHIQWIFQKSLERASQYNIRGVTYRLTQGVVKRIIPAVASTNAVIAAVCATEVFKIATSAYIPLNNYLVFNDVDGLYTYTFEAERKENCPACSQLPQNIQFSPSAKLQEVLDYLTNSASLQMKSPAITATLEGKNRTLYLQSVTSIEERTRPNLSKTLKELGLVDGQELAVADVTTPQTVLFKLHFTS
T1 sequence (Q13564 1-534 partner): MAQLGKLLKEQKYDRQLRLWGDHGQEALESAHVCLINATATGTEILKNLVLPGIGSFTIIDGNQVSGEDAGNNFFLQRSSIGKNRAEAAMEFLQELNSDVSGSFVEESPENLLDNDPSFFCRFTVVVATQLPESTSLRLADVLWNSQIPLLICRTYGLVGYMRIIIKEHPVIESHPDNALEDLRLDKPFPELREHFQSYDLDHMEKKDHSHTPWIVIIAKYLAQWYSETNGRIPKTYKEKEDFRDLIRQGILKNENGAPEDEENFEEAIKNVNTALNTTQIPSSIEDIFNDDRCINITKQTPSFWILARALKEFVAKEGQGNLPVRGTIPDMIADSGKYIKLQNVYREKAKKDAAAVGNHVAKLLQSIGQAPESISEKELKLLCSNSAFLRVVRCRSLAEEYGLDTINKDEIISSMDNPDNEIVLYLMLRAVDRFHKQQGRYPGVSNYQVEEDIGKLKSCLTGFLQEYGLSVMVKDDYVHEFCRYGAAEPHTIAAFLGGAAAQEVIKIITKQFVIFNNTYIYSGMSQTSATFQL

cullin-3 = assay: Western blot: transfer of UB variants to cullin-3; format: biochemical; details: 5 µM HA-tagged protein, 1 µM NAE, 1 µM Ubc12, 1 µM cullin, 1 mM ATP, 1 h, room temperature, anti-HA Western blot
Protocol: (§1) Figure 6 Transfer of phage selected UB variants to NAE (E1), Ubc12 (E2), and cullin-3. HA-tagged wt UB, wt Nedd8 and UB variants were used in the assay. In the control reaction, either Ubc12 or cullin-3 in complex with Rbx1 was missing. The blots were probed with a mouse anti-HA antibody and a goat anti-mouse IgG antibody linked to HRP.
(§2) 20 µL of the reaction mixture were loaded on a 4–15% SDS-PAGE gel (Bio-Rad). After electrophoresis, the protein bands were electroblotted onto a piece of polyvinylidene fluoride membrane (Bio-Rad). The membrane was blocked with 3% BSA in TBS buffer for 1 hour followed by incubation with 3% BSA in TBS buffer containing 1∶500 diluted 200 µg/mL anti-HA antibody (Santa Cruz Biotechnology) and 1∶10,000 diluted anti-mouse horseradish peroxidase conjugate (Pierce) for 1 hour, respectively. The membrane was then washed 5 times with TBS-T buffer and 5 times with TBS buffer followed by detection with the ECL luminescent detection kit (GE Healthcare).

Ubc12 (E2) = assay: Western blot: transfer of UB variants to Ubc12; format: biochemical; details: 5 µM HA-tagged protein, 1 µM NAE, 1 µM Ubc12, 1 µM cullin, 1 mM ATP, 1 h, room temperature, anti-HA Western blot
Protocol: as §1, §2

NAE (E1) = assay: Western blot: formation of UB∼NAE thioester conjugates; format: biochemical; details: 5 µM HA-tagged protein, 1 µM NAE, 1 mM ATP, 1 h, room temperature, anti-HA Western blot
Protocol: as §1, §2

NAE [2] = biological target: T1, NAE; details: cited from earlier work
From the text: […] binds to the nucleotide binding pocket of NAE as an AMP analog with a sulfamate ...

Ubc12 = biological target: T2, Ubc12 (UniProt P61081 1-183); assay: thioester conjugate formation (SDS-PAGE, Western blot); 5 µM biotin labeled peptide with 1 µM NAE, 1 µM Ubc12 and 1 µM cullin, 1 mM ATP, 10 mM MgCl2, 50 µM DTT, TBS, 1 hour, room temperature; streptavidin-HRP blot; covalent conjugates; details: both partners purified
T2 construct: also called E2; source: expressed and purified as previously reported [33]
T2 sequence (looked up): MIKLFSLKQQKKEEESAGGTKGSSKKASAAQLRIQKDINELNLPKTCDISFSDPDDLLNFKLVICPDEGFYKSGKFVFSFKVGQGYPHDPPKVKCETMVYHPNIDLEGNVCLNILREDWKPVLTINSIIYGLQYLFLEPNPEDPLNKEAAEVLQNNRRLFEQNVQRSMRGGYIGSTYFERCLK

In the case of “N26: UB variant with single Arg72Ala mutation, C-terminal sequence 71LALRGG76”, the “activity with NAE” value (NAE [1]) is given as “previously found to be active with NAE”, the “transfer to cullin (cullin modification)” value (cullin-3) is given as “substantial cullin modification at a level similar or exceeding that of wt Nedd8” and the “transfer from NAE to Ubc12 (UB∼Ubc12 conjugates)” value (Ubc12 (E2)) is given as “efficiently forms UB∼Ubc12 conjugates”. For the same molecule, the “formation of UB∼NAE conjugates” value (NAE (E1)) was “can function as the wt Nedd8 for thioester formation with NAE and Ubc12”.

In the case of `NS(=O)(=O)OC[C@@H]1C[C@@H](n2ccc3c(N[C@H]4CCc5ccccc54)ncnc32)C[C@@H]1O` [MLN4924], the “inhibition of NAE” value (NAE [2]) is given as “potent inhibitor of NAE”.

B1: biotin-pN26 (VLALRGG) (peptide)
peptide: {Biotin-LC-LC}-VLALRGG
notes: also called pN26 conjugated to biotin; source: synthetic peptide (EZBiolab), labelled with NHS-LC-LC-biotin, HPLC purified
B1: binds (Ubc12).
